Measured values from patent US20240299401A1, “NOVEL REDOX-BASED THERAPEUTIC APPROACH FOR TREATMENT OF CANCER” (THE PENN STATE RESEARCH FOUNDATION, priority 2020, published 2024).
Structures can show the parent of a compound that is named as a salt. Where two headings read alike, the source gives them in different places.

Assays:
[1] = test system: extracellular reduced thiols; test: Extracellular thiols measurement (DTDP method); type: cell-based, human; conditions: for thiols efflux: A549 and H1299, 24 h, Erastin 5 μM, MSG 50 mM, Sorafenib 2.5 μM, trans-2,4-PDC 100 μM; for extracellular reduced thiols levels: MCF7 cells
Description: Cell culture media was collected at specified time points after incubation with the respective compounds as described in the respective figure legends and extracellular total thiols were measured using the DTDP method 19. The protocol was adjusted to 96-well plate format. […] Absorbance was measured at 324 nm in a spectrophotometer (PowerWave HT, BioTek, VT, USA). The assay mixture with fresh media was used as a blank.

A549 = test: WST-1 cytotoxicity, A549; type: cell-based, human
Description: (§1) Two different cytotoxicity/proliferation kit was used in this study i.e., WST-1 proliferation assay kit (Roche, Indianapolis, IN, USA; Cat #28620000) and Cell-titer Glo-luminescent cell viability assay (Promega, WI, USA; Cat #0000348721). Majority of the cell proliferation/cytotoxicity experiments were performed with WST-1 assay. Briefly, cells were seeded at the indicated density for 24 h in 96 well plate, media was replaced, and subsequently treated with the test compounds at different doses. […] Cell titer Glo-assay was additionally performed in certain cases to validate the results from WST-1 assay as outlined above following manufacturer's instructions and luminescence was measured using a FLx100 Luminometer (CLARIOSTAR®, Ortenbery, Germany). […] Other proliferation/cytotoxicity assays were also carried out i.e., Quant™-iT PicoGreen ds DNA assay kit (Thermo Scientific, Rockwood, TN, USA, P7589) following manufacturer's instructions, Trypan blue (Sigma, Ayrshire, UK, T8154) and acid phosphatase assay for validation of cytotoxicity/proliferation data from other assays.

H661 = test: WST-1 cytotoxicity, H661; type: cell-based, human; conditions: 24 h
Description: as §1

NB4 = test: WST-1 cytotoxicity, NB4; type: cell-based, human
Description: as §1

HL60 = test: WST-1 cytotoxicity and synergy analysis, HL60; type: cell-based, human
Description: as §1

[2] = test system: 23 different human cell lines of multiple cancer origins; test: Cytotoxicity across the cancer cell line panel (summary statements); type: cell-based
Description: as §1

H1299 = test: WST-1 cytotoxicity, H1299; type: cell-based, human
Description: as §1

U1906E = test: WST-1 cytotoxicity, U1906E; type: cell-based; conditions: Homo sapiens; U1906E; alone; 24 h; read-out: Calculated IC50 values
Description: as §1

U1906L = test: WST-1 cytotoxicity, U1906L; type: cell-based; conditions: Homo sapiens; U1906L; alone; 24 h; read-out: Calculated IC50 values
Description: as §1

THP-1 = test: WST-1 cytotoxicity, THP-1; type: cell-based; conditions: Homo sapiens; THP-1; alone; 24 h; read-out: Calculated IC50 values
Description: as §1

AML193 = test: WST-1 cytotoxicity, AML193; type: cell-based; conditions: Homo sapiens; AML193; alone; 24 h; read-out: Calculated IC50 values
Description: as §1

HepG2 = test: WST-1 cytotoxicity, HepG2; type: cell-based; conditions: Homo sapiens; HepG2; alone; 24 h; read-out: Calculated IC50 values
Hep3B = test: WST-1 cytotoxicity, Hep3B; type: cell-based; conditions: Homo sapiens, alone, 24 h, read-out: Calculated IC50 values
Description: as §1

HUH7 = test: WST-1 cytotoxicity, HUH7; type: cell-based; conditions: Homo sapiens, Huh-7; HUH7; alone; 24 h; read-out: Calculated IC50 values
Description: as §1

SHSY5-SY = test: WST-1 cytotoxicity, SHSY5-SY; type: cell-based; conditions: Homo sapiens; SHSY5-SY; alone; 24 h; read-out: Calculated IC50 values
Description: as §1

SNB-19 = test: WST-1 cytotoxicity, SNB-19; type: cell-based; conditions: Homo sapiens; SNB-19; alone; 24 h; read-out: Calculated IC50 values
Description: as §1

8-MGBA = test: WST-1 cytotoxicity, 8-MGBA; type: cell-based; conditions: Homo sapiens, 8-MG-BA; 8-MGBA; alone; 24 h; read-out: Calculated IC50 values
Description: as §1

LS174T = test: WST-1 cytotoxicity, LS174T; type: cell-based; conditions: Homo sapiens, alone, 24 h, read-out: Calculated IC50 values
Description: as §1

HeLa = test: WST-1 cytotoxicity, HeLa; type: cell-based; conditions: Homo sapiens, alone, 24 h, read-out: Calculated IC50 values
Description: as §1

MCF-7 = test: WST-1 cytotoxicity, MCF-7; type: cell-based, human
Description: as §1

PANC-1 = test: WST-1 cytotoxicity, PANC-1; type: cell-based; conditions: Homo sapiens; PANC-1; alone; 24 h; read-out: Calculated IC50 values
Description: as §1

A375 = test: WST-1 cytotoxicity, A375; type: cell-based; conditions: Homo sapiens, A-375; A375; alone; 24 h; read-out: Calculated IC50 values
Description: as §1

IGROV1 = test: WST-1 cytotoxicity, IGROV1; type: cell-based, human; conditions: IGROV1; alone; 24 h; dose up to 200 μM
Description: as §1

OV2008 = test: WST-1 cytotoxicity, OV2008; type: cell-based; conditions: Homo sapiens; OV2008; alone; 24 h; read-out: Calculated IC50 values
Description: as §1

[3] = Toxicity in black mice (C57BL/6), 3 weeks; type: in vivo; conditions: sodium selenite or selenocystine 3 mg/kg, alone or with diphenyl diselenide 50 and 100 mg/kg
Description: Black mice (C57BJ/6) mice were treated perorally every second day with either vehicle (canola oil) or diphenyl diselenide at two different dose levels (50 and 100 mg/kg body weight) for 3 weeks. Final body weight and weight of the major organs were measured at necropsy.
Black mice (C57BJ/6) mice were treated with vehicle (PBS i.p. and canola oil p.o.), sodium selenite (3 mg/kg body weight), selenocystine (3 mg/kg body weight), or in combinations with two different doses of diphenyl diselenide (50 and 100 mg/kg body weight) for 3 weeks. Final body weight and weight of the major organs were measured at necropsy.

[4] = Reported oral administration of selenocystine in humans; type: in vivo, human; conditions: assuming 15% of 100 mg daily dose bioavailable, blood volume 5 L
[5] = orally, 50-200 mg/day for 49 days; human; cited from earlier work
[6] = test system: Primary peripheral blood mononuclear cells; test: WST-1 cytotoxicity, primary PBMCs; conditions: Homo sapiens, PBMC, 24 h, read-out: Calculated IC50 values
[7] = test system: Primary Human hepatocytes; test: WST-1 cytotoxicity, primary human hepatocytes; conditions: Hepatocyte, 24 h, read-out: Calculated IC50 values
ATF4 = conditions: HEK293 ATF4 reporter; tunicamycin 2.5 μM, other compounds 5.0 μM; 24 h
Description: The next day, media was replaced with respective compounds as described. Twenty-four hours post-treatment, media were aspirated and replaced with 1:1 ratio of PBS:Bright Glo luciferase reagent mix (Promega, Madison, WI, USA) according to manufacturer's protocol. Cells were incubated in the dark for 10 min at room temperature with gentle rocking and luciferase activity was measured using an FLx100 Luminometer (CLARIOSTAR®, Ortenbery, Germany). In parallel, the same setup was made, and the cells were used to monitor the proliferation/toxicity of individual exposed compounds. Luciferase signal is normalized to the to the proliferation/toxicity of the individual compounds. Bortezomib (50 nM, Sigma-Aldrich, St. Louis, MO, USA), a known agonist for ATF4, was used as a positive control.
The next day, old media was replaced with media containing the respective compounds as described in the figure legends. […] Cells were incubated in the dark for 10 min at room temperature with gentle rocking and luciferase activity was measured using an FLx100 Luminometer (CLARIOSTAR®, Ortenbery, Germany). […] In parallel, the same setup was made, and the cells were used to monitor the proliferation/toxicity of individual compounds. Luciferase signal was normalized to correct for the proliferation/toxicity of the individual compounds. […] For ATF4 reporter assay, Hek293T reporter cells 20 were cultured similarly as indicated for MCF7 cells, except for seeding density was set at 300 cells/mm2. All other experimental set up was similar.

SLC7A11 = SLC7A11 mRNA expression (qRT-PCR); conditions: HL60 and H1299 cells
[8] = Homo sapiens, A549 (Lung), compound alone, 24 h, '>' = dose approximation, read-out: IC50 values
[9] = Homo sapiens, NCI-H661, H661 (Lung), compound alone, '>' = dose approximation, read-out: IC50 values
[10] = Homo sapiens, NB-4, NB4 (Leukemia), compound alone, 24 h, '>' = dose approximation, read-out: IC50 values
[11] = Homo sapiens, HL-60, HL60 (Leukemia), compound alone, 24 h, '>' = dose approximation, read-out: IC50 values
[12] = H1299 (Lung), compound alone, 24 h, '>' = dose approximation, read-out: IC50 values
[13] = MCF7 (Breast), compound alone, 24 h, '>' = dose approximation, read-out: IC50 values

Molecule: O=C(O)[C@H]1CN[C@H](C(=O)O)C1 (relative stereo) [trans-2,4-PDC]
- thiols efflux [1]: no effect

Molecule: CCCCS(=N)(=O)CCC(N)C(=O)O (stereo not drawn) [BSO]
- impact on the DPDS-induced increase in thiols efflux ([1]; MCF7, co-exposure, time-course): little or no impact

Molecule: COc1cc(/C=C/C(=O)CC(=O)/C=C/c2ccc(O)c(OC)c2)ccc1O [Curcumin, reference compound]
- IC50 (A549; [8]): > 20 µM
- IC50 (H661; [9]): > 20 µM
- IC50 (NB4; [10]): > 20 µM
- IC50 (HL60; [11]): > 20 µM

Molecule: c1ccc(C[Se][Se]Cc2ccccc2)cc1 [DBDS, dibenzyl diselenide]
- extracellular reduced thiols ([1]; HEK293 ATF4 reporter cells, 5.0 μM): increased levels of extracellular reduced thiols
- extracellular reduced thiols ([1]; all the tested cell lines, H1299 and HL60): highly effective

Molecule: COC(=O)/C=C/C(=O)OC [Dimethyl fumarate, reference compound]
- IC50 (A549; [8]): > 40 µM
- IC50 (H661; [9]): > 40 µM
- IC50 (NB4; [10]): > 40 µM
- IC50 (HL60; [11]): > 40 µM

Molecule: CCOc1ccccc1-n1c(C(C)N2CCN(C(=O)COc3ccc(Cl)cc3)CC2)nc2ccccc2c1=O (stereo not drawn) [Erastin]
- effect of co-treatment on cytotoxicity of sodium selenite and selenocystine [2]: inhibition of cytotoxicity

Molecule: c1ccc(SSc2ccccc2)cc1 [Phenyl disulfide]
- IC50 (A549; [8]): > 40 µM
- IC50 (H661; [9]): > 20 µM
- IC50 (NB4; [10]): > 20 µM
- IC50 (HL60; [11]): > 40 µM

Molecule: N[C@@H](C[Se][Se]C[C@H](N)C(=O)O)C(=O)O [Selenocystine, selenocystine]
- IC50 (A549; Homo sapiens, A549, alone, 24 h, read-out: Calculated IC50 values): 8.7 µM
- IC50 (A549; Homo sapiens, A549, alone, read-out: Calculated IC50 values of selenocystine): 8.7 µM
- IC50 (H661; Homo sapiens, NCI-H661, H661, alone, read-out: Calculated IC50 values): 55.7 µM
- IC50 (H1299; Homo sapiens, NCI-H1299, H1299, alone, 24 h, read-out: Calculated IC50 values): 22.7 µM
- IC50 (H1299; Homo sapiens, NCI-H1299, H1299, alone, read-out: Calculated IC50 values of selenocystine): 22.7 µM
- IC50 (U1906E): 2.18 µM
- IC50 (U1906L): 17.8 µM
- IC50 (NB4; Homo sapiens, NB-4, NB4, alone, 24 h, read-out: Calculated IC50 values): 44.1 µM
- IC50 (NB4; Homo sapiens, NB-4, NB4, alone, read-out: Calculated IC50 values of selenocystine): 44.1 µM
- IC50 (HL60; Homo sapiens, HL-60, HL60, alone, 24 h, read-out: Calculated IC50 values): 22.6 µM
- IC50 (HL60; Homo sapiens, HL-60, HL60, alone, read-out: Calculated IC50 values of selenocystine): 22.6 µM
- IC50 (THP-1): 0.92 µM
- IC50 (AML193): 47 µM
- IC50 (HepG2): 12.4 µM
- IC50 (Hep3B): 74.7 µM
- IC50 (HUH7): 92.7 µM
- IC50 (SHSY5-SY): 115 µM
- IC50 (SNB-19): 78.7 µM
- IC50 (8-MGBA): 49.7 µM
- IC50 (LS174T): 3.88 µM
- IC50 (HeLa): 5.78 µM
- IC50 (MCF-7; Homo sapiens, MCF7, MCF-7, alone, 24 h, read-out: Calculated IC50 values): 34.9 µM
- IC50 (MCF-7; Homo sapiens, MCF7, MCF-7, alone, read-out: Calculated IC50 values of selenocystine): 34.9 µM
- IC50 (PANC-1): 18.5 µM
- IC50 (A375): 8.6 µM
- Calculated IC50 values (IGROV1): Non-toxic*
- IC50 (OV2008): 6.98 µM
- toxic effects (body and organ weight at necropsy) [3]: No demonstrated toxic effects could be observed
- maximum plasma concentration (conservative estimation) [4]: 17.8 µM
- drug-induced toxic effects [5]: no signs of drug-induced toxic effects were reported
- IC50 [6]: 35.4 µM
- IC50 [7]: 300 µM

Molecule: O=C(O)c1cc(/N=N/c2ccc(S(=O)(=O)Nc3ccccn3)cc2)ccc1O [Sulfasalazine]
- effect of co-treatment on cytotoxicity of sodium selenite and selenocystine ([2]; chemical inhibition of cystine transport): inhibition of cytotoxicity

Molecule: C[S+]([O-])CCCCN=C=S (stereo not drawn) [Sulforaphen, reference compound]
- IC50 (A549; [8]): > 10 µM
- IC50 (H661; [9]): > 10 µM
- IC50 (NB4; [10]): > 20 µM
- IC50 (HL60; [11]): > 20 µM
- extracellular reduced thiols levels [1]: induced
- ATF4 activity (ATF4): not effective

Molecule: CC(C)(C)c1cc(O)ccc1O [Tert-butyl hydroxyquinone, reference compound]
- IC50 (A549; A549 (Lung), compound alone, 24 h, '>' = dose approximation, read-out: IC50 values): > 20 µM
- IC50 (H661; H661 (Lung), compound alone, '>' = dose approximation, read-out: IC50 values): > 40 µM
- IC50 (H1299; [12]): > 100 µM
- IC50 (NB4; NB4 (Leukemia), compound alone, 24 h, '>' = dose approximation, read-out: IC50 values): > 20 µM
- IC50 (HL60; HL60 (Leukemia), compound alone, 24 h, '>' = dose approximation, read-out: IC50 values): > 25 µM
- IC50 (MCF-7; [13]): > 60 µM
- extracellular reduced thiols levels [1]: induced
- ATF4 activity (ATF4): not effective
- SLC7A11 expression (SLC7A11): Increased SLC7A11 expression

Molecule: c1ccc([Te][Te]c2ccccc2)cc1 [diphenyl ditelluride]
- ATF4 activity (ATF4): Increased ATF4 activity

Molecule: N[C@@H](CCC(=O)O)C(=O)[O-].[Na+] [mono-sodium glutamate]
- thiols efflux [1]: inhibited thiols efflux

Molecule: CNC(=O)c1cc(Oc2ccc(NC(=O)Nc3ccc(Cl)c(C(F)(F)F)c3)cc2)ccn1 [sorafenib]
- thiols efflux [1]: no effect

Molecule: Tunicamycin [reference compound]
- IC50 (H1299; [12]): > 20 µM
- IC50 (MCF-7; [13]): > 5 µM
- ATF4 activity (ATF4): Increased ATF4 activity
- SLC7A11 expression (SLC7A11): Increased SLC7A11 expression
